# Measurements published in publication PMC11829042, “Proteasomes accumulate in the plant apoplast where they participate in microbe-associated molecular pattern (MAMP)-triggered pathogen defense” (Nature Communications, 2025).
# Legend:
# [1] = molecular target: T1, 20S proteasome core particle, PBE1(β5) subunit (chymotrypsin-like activity) (Arabidopsis thaliana, UniProt O23717); test: Suc-LLVY-AMC cleavage in leaf lysate and APF, […]; format: cell-based
# T1 construct: native proteasomes in leaf crude lysate and apoplastic fluid; with other subunits of the assembled 20S core particle
# T1 sequence (O23717 58-274): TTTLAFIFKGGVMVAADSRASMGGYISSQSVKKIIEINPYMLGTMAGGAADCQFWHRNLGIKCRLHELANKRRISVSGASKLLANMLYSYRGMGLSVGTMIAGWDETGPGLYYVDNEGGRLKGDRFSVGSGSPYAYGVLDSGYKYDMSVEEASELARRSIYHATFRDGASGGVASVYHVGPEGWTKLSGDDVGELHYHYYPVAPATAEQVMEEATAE
# [2] = molecular target: T2, 20S proteasome core particle, PBE1(β5) subunit (chymotrypsin-like activity) (Arabidopsis thaliana, UniProt O23717); test: Suc-LLVY-AMC fluorogenic peptidase assay with […] SylA, affinity-purified proteasomes; format: biochemical
# T2 construct: with other subunits of the assembled 20S core particle (PAG1(α7)-FLAG)
# T2 sequence (O23717 58-274): T1 sequence (O23717 58-274)
# T2 sequence (O23715 2-249 partner): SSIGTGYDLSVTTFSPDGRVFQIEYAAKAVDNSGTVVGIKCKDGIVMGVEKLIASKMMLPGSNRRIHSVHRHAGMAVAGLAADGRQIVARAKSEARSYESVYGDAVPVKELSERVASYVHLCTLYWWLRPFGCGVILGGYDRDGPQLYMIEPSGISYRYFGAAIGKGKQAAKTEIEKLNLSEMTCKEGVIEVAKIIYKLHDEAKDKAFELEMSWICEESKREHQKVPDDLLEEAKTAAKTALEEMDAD
SMILES,"Suc-LLVY-AMC cleavage in leaf lysate and APF, 50 μM [1]","Suc-LLVY-AMC fluorogenic peptidase assay with 50 or 150 μM SylA, affinity-purifi [2]"
"CC(C)C[C@H](NC(=O)[C@H](Cc1ccccc1)NC(=O)c1cnccn1)B(O)O [BTZ, 1R-3-methyl-1-2S-3-phenyl-2-pyrazin-2-carbonylamino propanoyl amino butyl boronic acid]","Suc-LLVY-AMC breakdown in the CL was strongly suppressed by the well-characterized CP inhibitors bortezomib (BTZ), MG132",
"CC(C)[C@H](NC(=O)N[C@H](C(=O)N[C@H]1/C=C/CCNC(=O)/C=C/[C@H](C(C)C)NC1=O)C(C)C)C(=O)O [SylA, syringolin-A]",,not only effectively inhibit the proteolytic activity of affinity-purified Arabidopsis proteasomes and those in the CL
